Blank lines part the entries; values can stand above or below the compound they belong to.
What was measured:
[1] = tested on: white blood cell (WBC) cystine; assay: Example 8 cystinosis patient cases: white blood cell cystine; type: in vivo, human
From the text: (§1) Dose formulations and treatment regimens for three patients with cystinosis are described, to illustrate both demographic variability in the patient population and how inter-individual biochemical variation in drug absorption, metabolism and response can be overcome by exploiting the drug and dosage form flexibility provided by the invention. These examples illustrate the principles of cysteamine precursor selection, dosage form selection and dose regimen individualization.
Disease control is monitored via periodic measurement of white blood cell cystine levels. The therapeutic target, as for all cystinosis patients, is to suppress white blood cell (WBC) cystine to less than 1 nanomole of ½ cystine per mg of WBC protein. […] If this higher dose is still not effective in controlling WBC cystine levels the dose can be further increased in increments of 150 mg/day.

[2] = Example 8 cystinosis patient cases: plasma cysteamine levels; type: in vivo, human
From the text: as §1

[3] = Tissue levels of cysteamine in liver and kidney at end of PK study; type: in vivo, Sprague-Dawley rats; conditions: 10.5 hours after TTI-0602 120 mg/kg, all three rats
Experimental: (§2) In addition to the plasma samples, gastrointestinal contents (stomach contents, proximal small intestinal contents, distal small intestinal contents and cecum/colon contents), liver, kidney and spleen were obtained from rats at the end of the study (10.5 hours after dosing) and snap frozen. Tissue levels of cysteamine, N-acetyl cysteamine and pantothenic acid were measured in the gastrointestinal contents and in liver and kidney tissue. […]

[4] = Analysis of gastrointestinal contents at end of PK study; type: in vivo, Sprague-Dawley rats; conditions: 120 mg/kg rats, ten hours after dosing
Experimental: as §2

[5] = Dissolution of TTI-0602 dose in saline; type: physicochemical; conditions: 120 mg/kg dose in 3 milliliters of saline
[6] = tested on: ALT and AST in plasma; assay: Example 9 NASH patient case: plasma liver enzymes; type: in vivo, human; conditions: within six weeks of initiating therapy; with vitamin C and vitamin E
Experimental: The daily dose of vitamin C is 2 grams and the daily dose of vitamin E is 800 international units of alpha tocopherol, RRR stereoisomer, which amounts to 533.3 milligrams per day (1 IU of tocopherol is defined as % milligrams of RRR-alpha-tocopherol). Half those amounts are administered twice per day.
Drug is administered in two divided doses (1,392 mg each) at 10 to 12 hour intervals, with breakfast and dinner.
In the second category (dynamic markers of drug response) levels of ALT and AST in plasma are followed over time as an index of ongoing hepatocyte damage. […] If ALT and AST levels had not dropped by 50% the regimen would have been discontinued.

[7] = cited from earlier work
[8] = administered to fasting patients; cited from earlier work
[9] = tested on: children with NAFLD; conditions: pediatric NAFLD patients treated for 24 weeks; cited from earlier work
[10] = tested on: CYP1A2, CYP2B6, CYP2C8, CYP2C9, CYP2C19, CYP2D6, CYP2E1, CYP2A6, CYP3A4; conditions: in vitro; cited from earlier work
[11] = tested on: CYP1A2, CYP2A6, CYP2B6, CYP2C8, CYP2C9, CYP2C19, CYP2D6, CYP2E1 and CYP3A4; conditions: in vitro; cited from earlier work
[12] = tested on: Plasmodium Falciparum; conditions: in vitro and in mouse models of malaria; cited from earlier work
[13] = tested on: Pseudomonas aeruginosa; conditions: cited from earlier work
[14] = Lynovex from Novabiotics; cited from earlier work
[15] = tested on: kidney fibrosis; conditions: two mouse models; cited from earlier work
[16] = tested on: erythrocytes from sickle cell disease patients; conditions: hypoxic conditions; cited from earlier work
[17] = tested on: cancer cell lines and xenograft models; conditions: cited from earlier work
[18] = tested on: R6/2 HD mouse model; conditions: R6/2 mouse; cited from earlier work
[19] = cystinuria patients; cited from earlier work
[20] = in vivo; cited from earlier work
[21] = tested on: cystinosis patients; conditions: high doses, syrup between meals; cited from earlier work
[22] = Pharmacokinetic study of TTI-0602: cysteamine in blood plasma after gavage; type: in vivo, Sprague-Dawley rats
Experimental: Thus in the discussion below, and in the accompanying figures, a “30 mg/kg” dose of TTI-0602 means 77.92 mg/kg was administered, a “60 mg/kg” dose of TTI-0602 means 155.84 mg/kg was administered and a “120 mg/kg” dose of TTI-0602 means 311.68 mg/kg was administered. The purpose of this nomenclature, which is widely used in the literature concerning cysteamine salts, is to facilitate comparison of doses of different cysteamine precursors and cysteamine salts.
The TTI-0602 doses were prepared for 250 gram rats, but the actual masses of the rats at the time of drug administration varied from 267-300 grams, so the actual doses, normalized to body weight, ranged from 26.1-27.1 mg/kg in group 1, 51.7-56.2 mg/kg in group 2 and 108.3-109.5 mg/kg in group 3. Nonetheless, for convenience those doses are referred to as 30, 60 and 120 mg/kg.
Blood samples were obtained from rats immediately before dosing and 5, 10, 20, 30, 45, 60, 90, 120, 180, 240, 300 and 600 minutes after dosing via carotid artery catheters surgically implanted before the PK study. Plasma was obtained from blood by centrifugation and snap frozen. Several days later plasma samples were thawed on ice and each plasma sample was aliquoted to two paired tubes (20 μL per tube), one of which was processed for measurement of thiols (after quantitative disulfide bond reduction), while the other was processed for analysis of disulfides.
To quantitatively reduce disulfide bonds the plasma in the first tube was treated with 5 mM tris(2-carboxyethyl)phosphine (TCEP), a selective and potent disulfide bond reducing agent, using a protocol reported by Dohil et al. (2012). Briefly, 2.2 ul of freshly prepared 50 mM TCEP stock solution was added to 20 ul of plasma and the sample incubated at 37 degrees C. for 45 minutes. […]
The denatured protein was pelleted by centrifugation at 14,000 rpm for 10 minutes at 4 degrees C. in an Eppendorf microcentrifuge. […] Metabolites were analyzed using a Nexera X2 U-HPLC (Shimadzu) and a Q-Exactive hybrid quadrupole Orbitrap mass spectrometer (Thermo Fisher Scientific). […]

[23] = cysteamine hydrochloride at 30 mg/kg cysteamine base, gavage

plasma cysteamine level six hours after the morning dose ([2]; Patient 2, 1,800 mg/day as IR/DR/SR powders): 22 µM
plasma cysteamine level 12 hours after the morning dose ([2]; Patient 2, immediately before the evening dose): 4 µM
SMILES: CC(C)(CO)[C@@H](O)C(=O)NCCC(=O)NCCSSCCN [cysteamine-pantetheine disulfide, cysteamine-(R)-pantetheine disulfide]
WBC cystine level ([1]; Patient 2, after sustained release component increased from 540 to 800 mg/day): 0.9 nanomoles of ½ cystine per mg protein
WBC cystine level ([1]; Patient 2, after two months, 1,800 mg/day cysteamine free base as IR/DR/SR powders): 1.34 nanomoles of ½ cystine per mg of protein

tissue level of cysteamine in kidney [3]: over 50 uM
tissue level of cysteamine in liver [3]: over 50 uM
dissolution of dose in saline [5]: did not completely dissolve in saline
SMILES: CC(=O)NCCSSCCNC(=O)CCNC(=O)[C@H](O)C(C)(C)CO [TTI-0602, N-acetylcysteamine-(R)-pantetheine disulfide]
undissolved drug in gastrointestinal contents [4]: a substantial amount of undissolved drug remained stuck in the stomachs of rats 8 and 9

SMILES: CC(=O)NC(CSSCCN)C(=O)O (centres unmarked) [cysteamine-N-acetylcysteine, cysteamine-N-acetylcysteine disulfide]
fall in plasma ALT [6]: at least 50%
fall in plasma AST [6]: at least 50%

SMILES: NCCS [cysteamine bitartrate]
Cmax ([7]; read-out: Cmax of cysteamine, cysteamine bitartrate 20 mg/kg cysteamine base equivalent): 81.9 µM

SMILES: NCCS [cysteamine, 2-aminoethanethiol]
inter-patient variation in cysteamine plasma levels [8]: up to four fold
high molecular weight adiponectin multimers [9]: increased levels of high molecular weigh adiponectin multimers
metabolism by CYP enzymes [10]: likely to be metabolized by multiple CYP enzymes, including CYP1A2, CYP2B6, CYP2C8, CYP2C9, CYP2C19, CYP2D6, and CYP2E1, but not by CYP2A6 or CYP3A4
inhibition of CYP enzymes [11]: not an inhibitor of CYP1A2, CYP2A6, CYP2B6, CYP2C8, CYP2C9, CYP2C19, CYP2D6, CYP2E1 and CYP3A4
proliferation of the parasite [12]: inhibits proliferation
effect on biofilms ([13]; P. aeruginosa biofilms): prevented the formation of, and disrupted established P. aeruginosa biofilms
bactericidal activity ([13]; Pseudomonas aeruginosa and other CF pathogens, Lynovex from Novabiotics): bactericidal
mucolytic activity vs. currently available mucolytic agents [14]: at least comparable mucolytic activity
efficacy in kidney fibrosis models [15]: effective
sickling [16]: marked inhibition of sickling
matrix metalloproteinase activity ([17]; animal xenografts and cancer cell lines): significantly decreased
survival of mice ([17]; xenograft models): prolonged survival of mice in a dose-dependent manner without toxicity
beneficial effects in HD mouse model [18]: amelioration of weight loss and motor abnormalities, and prolongation of survival

SMILES: NCCS.O=C(O)C(O)C(O)C(=O)O (centres unmarked) [cysteamine bitartrate]
time by which cysteamine levels returned to baseline ([7]; cysteamine bitartrate 20 mg/kg cysteamine base equivalent): ≤ 2 h
cysteamine eliminated by 150 minutes (inferred) ([7]; cysteamine bitartrate 20 mg/kg, tissue): over 95%
tissue half life of cysteamine ([7]; cysteamine bitartrate 20 mg/kg): 25 to 29 min

SMILES: CC(S)C(=O)NCC(=O)O (centres unmarked) [tiopronin]
tolerability [19]: not well tolerated by most patients

SMILES: CC(C)(COP(=O)(O)O)[C@@H](O)C(=O)NCCC(=O)NCCS [4-phosphopantetheine]
half life in blood [20]: over 3 hours

SMILES: CC(C)(CO)[C@@H](O)C(=O)NCCC(=O)NCCSSCCNC(=O)CCNC(=O)[C@H](O)C(C)(C)CO [pantethine]
gastrointestinal side effect [21]: caused diarrhea

SMILES: CC(S)C(=O)NCC(=O)O (stereo not drawn) [Alpha-mercaptopropionylglycine]
tolerability [19]: not tolerated by about one third of patients

SMILES: CC(C)(S)[C@@H](N)C(=O)O [penicillamine]
tolerability [19]: not well tolerated by most patients

SMILES: Cl.NCCS [cysteamine HCl, cysteamine hydrochloride]
shape of the plasma cysteamine concentration-time curve ([22]; cysteamine hydrochloride 30 mg/kg vs TTI-0602 120 mg/kg): a high, sharp peak
peak plasma cysteamine concentration [22, 23]: over 200 uM
time by which cysteamine concentration declined to less than half maximal [22, 23]: ≤ 90 min

— US11173135B2 (Thiogenesis Therapeutics, Inc., priority 2016, dated 2021)
